The text below walks through data of patent US20250230172A1 (Vanqua Bio, Inc., priority 2021, published 2025).

The target of the experiment is T1, GCase (Homo sapiens, UniProt P04062).
T1 construct: endogenous in cells; host or cells: HeLa cells
T1 sequence (P04062 40-536): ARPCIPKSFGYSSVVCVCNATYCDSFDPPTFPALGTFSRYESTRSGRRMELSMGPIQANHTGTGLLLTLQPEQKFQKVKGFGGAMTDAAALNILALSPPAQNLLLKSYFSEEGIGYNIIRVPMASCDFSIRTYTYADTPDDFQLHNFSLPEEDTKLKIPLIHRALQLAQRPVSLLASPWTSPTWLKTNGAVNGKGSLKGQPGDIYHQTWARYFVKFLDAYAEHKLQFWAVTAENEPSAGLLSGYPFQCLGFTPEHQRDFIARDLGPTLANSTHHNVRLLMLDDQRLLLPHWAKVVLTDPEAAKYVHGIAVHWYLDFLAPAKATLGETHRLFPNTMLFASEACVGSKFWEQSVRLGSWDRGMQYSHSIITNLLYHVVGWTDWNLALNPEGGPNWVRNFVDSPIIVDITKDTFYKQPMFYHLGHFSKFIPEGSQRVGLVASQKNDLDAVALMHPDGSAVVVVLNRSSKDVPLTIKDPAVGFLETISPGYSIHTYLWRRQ
Nature of the experiment: live cell PFB assay in HELA cells for activation of GCase. The experiment is classed as cell-based. How it is done:
Exemplary compounds were evaluated for activation of GCase in a live cell PFB assay in HELA cells (essentially as described in Ysselstein et al., “LRRK2 kinase activity regulates lysosomal glucocerebrosidase in neurons derived from Parkinson's disease patients” Nature Communications (2019) 10:5570). […] EC50 ranges: A: <10 μM; B: >10-50 μM; C: >50-100 μM; D: >100 μM.
`FC(F)Cn1ncc2ncc(N3C[C@H]4CN(c5cc(C(F)(F)F)ccn5)C[C@H]4C3)nc21` [Compound 43, rac-2-[(3aR,6aS)-5-[1-(2,2-difluoroethyl)-1H-pyrazolo[3,4-b]pyrazin-6-yl]-octahydropyrrolo[3,4-c]pyrrol-2-yl]-4-(trifluoromethyl)pyridine] returned a 50% effective concentration (EC50) below 10 µM.
The result for `O=C1CC2CN(c3cccc(C(F)(F)F)n3)CC2CN1c1cnc2cnn(CC(F)F)c2n1` (centres unmarked) [Compound 66, 5-(1-(2,2-difluoroethyl)-1H-pyrazolo[3,4-b]pyrazin-6-yl)-2-(6-(trifluoromethyl)pyridin-2-yl)octahydro-6H-pyrrolo[3,4-c]pyridin-6-one] reads 10 to 50 µM; that for `FC(F)Cn1ncc2ncc(N3C[C@@H]4CCN(c5cc(C(F)(F)F)ccn5)[C@@H]4C3)nc21` (racemic) [Compound 60, rac-2-[(3aR,6aR)-5-[1-(2,2-difluoroethyl)-1H-pyrazolo[3,4-b]pyrazin-6-yl]-octahydropyrrolo[2,3-c]pyrrol-1-yl]-4-(trifluoromethyl)pyridine], 10 to 50 µM.
Next, `FC(F)Cn1ncc2ncc(N[C@@H]3CC[C@@H]4CN(c5cccc(C(F)(F)F)n5)C[C@@H]4C3)nc21` (single isomer, unassigned) [Compound 71]: 10 to 50 µM; `FC(F)Cn1ncc2ncc(N[C@@H]3C[C@@H]4CN(c5ccc(C(F)(F)F)nc5)C[C@@H]4C3)nc21` [Compound 39, (3aR,5S,6aS)—N-[1-(2,2-difluoroethyl)-1H-pyrazolo[3,4-b]pyrazin-6-yl]-2-[6-(trifluoromethyl)pyridin-3-yl]-octahydrocyclopenta[c]pyrrol-5-amine]: below 10 µM; `FC(F)Cn1ncc2ncc(N[C@H]3C[C@@H]4CN(c5cncc(C(F)(F)F)c5)C[C@@H]4C3)nc21` [Compound 53, (3aR,5S,6aS)—N-[1-(2,2-difluoroethyl)-1H-pyrazolo[3,4-b]pyrazin-6-yl]-2-[5-(trifluoromethyl)pyridin-3-yl]-octahydrocyclopenta[c]pyrrol-5-amine]: below 10 µM.
The result for `FC(F)Cn1ncc2ncc(N[C@@H]3CC[C@@H]4CN(c5cc(C(F)(F)F)ccn5)C[C@@H]4C3)nc21` (single isomer, unassigned) [Compound 73] reads 10 to 50 µM.
On to `O=C1[C@@H]2CN(c3cc(C(F)(F)F)ccn3)C[C@@H]2CN1c1cnc2cnn(CC(F)F)c2n1` (racemic) [Compound 55, rac-(3aR,6aS)-2-[1-(2,2-difluoroethyl)-1H-pyrazolo[3,4-b]pyrazin-6-yl]-5-[4-(trifluoromethyl)pyridin-2-yl]-octahydropyrrolo[3,4-c]pyrrol-1-one], for which the EC50 is 10 to 50 µM.
Next, `FC(F)Cn1ncc2ncc(N[C@@H]3C[C@@H]4CN(c5ncccc5C(F)(F)F)C[C@@H]4C3)nc21` [Compound 38, (3aR,5S,6aS)—N-[1-(2,2-difluoroethyl)-1H-pyrazolo[3,4-b]pyrazin-6-yl]-2-[3-(trifluoromethyl)pyridin-2-yl]-octahydrocyclopenta[c]pyrrol-5-amine]: below 10 µM.
The result for `FC(F)Cn1ncc2ncc(N[C@@H]3CC[C@@H]4CN(c5cccnc5C(F)(F)F)C[C@@H]4C3)nc21` (single isomer, unassigned) [Compound 75] reads above 100 µM.
Next, `FC(F)Cn1ncc2ncc(N3C[C@H]4CCN(c5cncc(C(F)(F)F)c5)C[C@H]4C3)nc21` (racemic) [Compound 14, rac-3-[(3aR,7aR)-2-[1-(2,2-difluoroethyl)-1H-pyrazolo[3,4-b]pyrazin-6-yl]-octahydro-1H-pyrrolo[3,4-c]pyridin-5-yl]-5-(trifluoromethyl)pyridine]: 10 to 50 µM.
`FC(F)Cn1ncc2ncc(N3CC[C@H]4[C@@H]3CCN4c3cc(C(F)(F)F)ccn3)nc21` (racemic) [Compound 56, rac-2-[(3aR,6aR)-4-[1-(2,2-difluoroethyl)-1H-pyrazolo[3,4-b]pyrazin-6-yl]-octahydropyrrolo[3,2-b]pyrrol-1-yl]-4-(trifluoromethyl)pyridine] showed an EC50 below 10 µM.
Next, `Cn1c(-c2ccccc2)c(C(=O)N2CCN3C[C@H](Oc4cccnc4C(F)(F)F)C[C@H]3C2)c2nccnc21` [Compound 27, 3-{[(7R,8aS)-2-{5-methyl-6-phenyl-5H-pyrrolo[2,3-b]pyrazine-7-carbonyl}-octahydropyrrolo[1,2-a]pyrazin-7-yl]oxy}-2-(trifluoromethyl)pyridine]: 50 to 100 µM; `FC(F)Cn1ncc2ncc(N3CC[C@H]4CN(c5cc(C(F)(F)F)ccn5)C[C@H]43)nc21` (racemic) [Compound 58, rac-2-[(3aR,6aR)-1-[1-(2,2-difluoroethyl)-1H-pyrazolo[3,4-b]pyrazin-6-yl]-octahydropyrrolo[3,4-b]pyrrol-5-yl]-4-(trifluoromethyl)pyridine]: 10 to 50 µM; `COc1cncc(N2C[C@H]3C[C@H](Nc4cnc5cnn(CC(F)F)c5n4)C[C@H]3C2)n1` [Compound 76, 1-(2,2-difluoroethyl)-N-((3aR,5s,6aS)-2-(6-methoxypyrazin-2-yl)octahydrocyclopenta[c]pyrrol-5-yl)-1H-pyrazolo[3,4-b]pyrazin-6-amine]: 10 to 50 µM.
Next, `FC(F)Cn1ncc2ncc(N3CC4CC(Oc5cccnc5C(F)(F)F)CC4C3)nc21` (centres unmarked) [Compound 31, 3-({2-[1-(2,2-difluoroethyl)-1H-pyrazolo[3,4-b]pyrazin-6-yl]-octahydrocyclopenta[c]pyrrol-5-yl}oxy)-2-(trifluoromethyl)pyridine]: above 100 µM.
The result for `FC(F)Cn1ncc2ncc(N3CC[C@@H]4CN(c5ccncc5C(F)(F)F)C[C@@H]4C3)nc21` (racemic) [Compound 25] reads above 100 µM.
Turning to `FC(F)Cn1ncc2ncc(N[C@H]3C[C@@H]4CN(c5nnccc5C(F)(F)F)C[C@@H]4C3)nc21` [Compound 84, 1-(2,2-difluoroethyl)-N-((3aR,5s,6aS)-2-(4-(trifluoromethyl)pyridazin-3-yl)octahydrocyclopenta[c]pyrrol-5-yl)-1H-pyrazolo[3,4-b]pyrazin-6-amine], the EC50 is above 100 µM.
Next, `FC(F)Cn1ncc2ncc(N3C[C@@H]4CCN(c5cccc(C(F)(F)F)n5)[C@@H]4C3)nc21` (racemic) [Compound 61, rac-2-[(3aR,6aR)-5-[1-(2,2-difluoroethyl)-1H-pyrazolo[3,4-b]pyrazin-6-yl]-octahydropyrrolo[2,3-c]pyrrol-1-yl]-6-(trifluoromethyl)pyridine]: 10 to 50 µM.
The result for `FC(F)Cn1ncc2ncc(N3C[C@@H]4CN(c5cccnc5C(F)(F)F)C[C@H]4C3)nc21` (racemic) [Compound 50, rac-3-[(3aR,6aR)-5-[1-(2,2-difluoroethyl)-1H-pyrazolo[3,4-b]pyrazin-6-yl]-octahydropyrrolo[3,4-c]pyrrol-2-yl]-2-(trifluoromethyl)pyridine] reads below 10 µM; that for `FC(F)Cn1ncc2ncc(N[C@H]3C[C@@H]4CN(c5cnc(C(F)(F)F)cn5)C[C@@H]4C3)nc21` [Compound 79, 1-(2,2-difluoroethyl)-N-((3aR,5s,6aS)-2-(5-(trifluoromethyl)pyrazin-2-yl)octahydrocyclopenta[c]pyrrol-5-yl)-1H-pyrazolo[3,4-b]pyrazin-6-amine], 10 to 50 µM.
Next, `FC(F)Cn1ncc2ncc(N[C@H]3C[C@@H]4CN(c5cncnc5C(F)(F)F)C[C@@H]4C3)nc21` [Compound 89, 1-(2,2-difluoroethyl)-N-((3aR,5s,6aS)-2-(4-(trifluoromethyl)pyrimidin-5-yl)octahydrocyclopenta[c]pyrrol-5-yl)-1H-pyrazolo[3,4-b]pyrazin-6-amine]: below 10 µM.
In turn, `FC(F)(F)Cn1ncc2ncc(N3CC[C@@H]4CN(c5cc(C(F)(F)F)ccn5)C[C@@H]4C3)nc21` (racemic) [Compound 13] showed a 50% effective concentration (EC50) of 10 to 50 µM.

Usually EC50 stands for the concentration that produces a half-maximal response. Low readings indicate a more potent agent, high ones a less potent agent.
